This passage reports pest or weed control results from patent US20180002319A1, “MACROCYCLIC PICOLINAMIDE COMPOUNDS WITH FUNGICIDAL ACTIVITY” (DOW AGROSCIENCES LLC, priority 2014, published 2018).

Like-named read-outs stand apart in the source and are kept apart here.

Holding throughout (assay type): in vivo
For one experiment, the system named is Uncinula necator. Nature of the experiment: Grape Powdery Mildew (UNCINE) fungicidal activity. Conditions: Erysiphe necator, 24 h, 1DP (1 Day Protectant), read-out: UNCINE Disease Control. As for the experimental part: Technical grades of materials were dissolved in acetone, which were then mixed with nine volumes of H2O containing 110 ppm Triton X-100. The fungicide solutions were applied onto wheat seedlings using an automated booth sprayer to run-off. All sprayed plants were allowed to air dry prior to further handling. All fungicides were evaluated using the aforementioned method for their activity vs. all target diseases, unless stated otherwise. Wheat leaf blotch and brown rust activity were also evaluated using track spray applications, in which case the fungicides were formulated as EC formulations, containing 0.1% Trycol 5941 in the spray solutions. Wheat plants (variety Yuma) were grown from seed in a greenhouse in 50% mineral soil/50% soil-less Metro mix until the first leaf was fully emerged, with 7-10 seedlings per pot. These plants were inoculated with an aqueous spore suspension of Zymoseptoria tritici either prior to or after fungicide treatments. After inoculation the plants were kept in 100% relative humidity (one day in a dark dew chamber followed by two to three days in a lighted dew chamber at 20° C.) to permit spores to germinate and infect the leaf. The plants were then transferred to a greenhouse set at 20° C. for disease to develop. When disease symptoms were fully expressed on the 1st leaves of untreated plants, infection levels were assessed on a scale of 0 to 100 percent disease severity. Percent disease control was calculated using the ratio of disease severity on treated plants relative to untreated plants. Example E: Evaluation of Fungicidal Activity: Grape Powdery Mildew (Uncinula necator; Bayer Code […]) Grape seedlings (variety Carignane) were grown in soil-less Metro mix, with one plant per pot, and used in the test when approximately one month old. Plants were inoculated 24 hr after fungicide treatment by shaking spores from infected leaves over test plants. Plants were maintained in a greenhouse set at 20° C. until disease was fully developed. Fungicide formulation, application and disease assessment on the sprayed leaves followed the procedures as described in the Example A.

Experiment [1] deals with Glomerella lagenarium; Anamorph: Colletotrichum lagenarium. Nature of the experiment: Cucumber Anthracnose (COLLLA) fungicidal activity. The conditions noted are these: Colletotrichum orbiculare, 24 h, 1DP (1 Day Protectant), read-out: COLLLA Disease Control. As for the experimental part: Technical grades of materials were dissolved in acetone, which were then mixed with nine volumes of H2O containing 110 ppm Triton X-100. The fungicide solutions were applied onto wheat seedlings using an automated booth sprayer to run-off. All sprayed plants were allowed to air dry prior to further handling. All fungicides were evaluated using the aforementioned method for their activity vs. all target diseases, unless stated otherwise. Wheat leaf blotch and brown rust activity were also evaluated using track spray applications, in which case the fungicides were formulated as EC formulations, containing 0.1% Trycol 5941 in the spray solutions. Wheat plants (variety Yuma) were grown from seed in a greenhouse in 50% mineral soil/50% soil-less Metro mix until the first leaf was fully emerged, with 7-10 seedlings per pot. These plants were inoculated with an aqueous spore suspension of Zymoseptoria tritici either prior to or after fungicide treatments. After inoculation the plants were kept in 100% relative humidity (one day in a dark dew chamber followed by two to three days in a lighted dew chamber at 20° C.) to permit spores to germinate and infect the leaf. The plants were then transferred to a greenhouse set at 20° C. for disease to develop. When disease symptoms were fully expressed on the 1st leaves of untreated plants, infection levels were assessed on a scale of 0 to 100 percent disease severity. Percent disease control was calculated using the ratio of disease severity on treated plants relative to untreated plants. Example N: Evaluation of Fungicidal Activity: Cucumber Anthracnose (Glomerella lagenarium; Anamorph: Colletotrichum lagenarium; Bayer Code COLLLA) Cucumber seedlings (variety Bush Pickle) were propagated in soil-less Metro mix, with each pot having one plant, and used in the test when 12 to 14 days old. Test plants were inoculated with an aqueous spore suspension of Colletotrichum lagenarium 24 hr after fungicide treatments. After inoculation the plants were kept in a dew room at 22° C. with 100% relative humidity for 48 hr to permit spores to germinate and infect the leaf. The plants were then transferred to a growth room set at 22° C. for disease to develop. Fungicide formulation, application and disease assessment on the sprayed leaves followed the procedures as described in the Example A.

Another experiment relates to Puccinia triticina. Nature of the experiment: Wheat Brown Rust (PUCCRT) fungicidal activity. Conditions: for pest or weed control at 121.5 g/ha: Low Volume application, 121.5 g/H; for pest or weed control at 100 ppm: High Volume application. The procedure, abridged: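 Yuma wheat seedlings at first-leaf stage sprayed to run-off with acetone/water (Triton X-100) solutions, inoculated with P. triticina spores before or after treatment. Overnight dark dew at 22° C, then greenhouse at 24° C; percent disease control from severity versus untreated plants.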

Where [2] appears, read: 24 h, 1 day protectant, read-out: PUCCRT disease control, 1DP (1 Day Protectant).
The mark [3] stands for this setting: 72 h, 3 day curative, read-out: PUCCRT disease control, 3DC (3 Day Curative).

With `COc1ccnc(C(=O)N[C@H]2COCC[C@H](Cc3ccccc3)[C@@H](OCC(C)C)[C@H](C)OC2=O)c1OCOC(C)=O` [Compound 20], the pest or weed control at 100 ppm (with Uncinula necator; in experiment [1]) was > 80% in each case. For the same molecule, the pest or weed control at 121.5 g/ha in the experiment on Puccinia triticina (setting [2]) and with Puccinia triticina (setting [3]) was > 80% throughout.

As for `COc1ccnc(C(=O)N[C@H]2CCCC[C@H](Oc3ccccc3)[C@@H](Oc3ccccc3)[C@H](C)OC2=O)c1OCOC(C)=O` [Compound 19], the pest or weed control at 100 ppm is < 80% in the experiment on Uncinula necator, > 80% in the experiment on Puccinia triticina (setting [2]) and > 80% in the experiment with Puccinia triticina (setting [3]). Moreover, the pest or weed control at 121.5 g/ha in the experiment on Puccinia triticina (setting [2]) and in the experiment on Puccinia triticina (setting [3]) was > 80% in each case.

Consider `CCCCO[C@H]1CCOC[C@H](NC(=O)c2nccc(OC)c2OCOC(C)=O)C(=O)O[C@@H](C)[C@@H]1OCc1ccccc1` [Compound 2], for which the pest or weed control at 100 ppm was < 80% with Uncinula necator, > 80% in experiment [1], > 80% in the experiment with Puccinia triticina (setting [2]) and > 80% in the experiment on Puccinia triticina (setting [3]). Moreover, the pest or weed control at 121.5 g/ha with Puccinia triticina (setting [2]) and with Puccinia triticina (setting [3]) was > 80% each time.

Regarding `CCCO[C@H]1[C@H](C)OC(=O)[C@@H](NC(=O)c2nccc(OC)c2OCOC(C)=O)CCCC[C@@H]1Oc1ccccc1` [Compound 18], the pest or weed control at 100 ppm in the experiment with Uncinula necator is < 80%; in the experiment on Puccinia triticina (setting [2]), > 80%; with Puccinia triticina (setting [3]) it was > 80%.

With `CCCCO[C@H]1CCOC[C@H](NC(=O)c2nccc(OC)c2OCOC(C)=O)C(=O)O[C@@H](C)[C@@H]1OC(=O)c1ccccc1` [Compound 4], the pest or weed control at 100 ppm is < 80% with Uncinula necator, > 80% in experiment [1], > 80% with Puccinia triticina (setting [2]) and > 80% in the experiment with Puccinia triticina (setting [3]). Further, the pest or weed control at 121.5 g/ha in the experiment on Puccinia triticina (setting [2]) and with Puccinia triticina (setting [3]) was > 80% throughout.

`COc1ccnc(C(=O)N[C@H]2COCC[C@@H](OCC(C)C)[C@@H](OCC(C)C)[C@H](C)OC2=O)c1OCOC(C)=O` [Compound 6]: the pest or weed control at 100 ppm in the experiment on Uncinula necator is < 80%; in experiment [1] it was > 80%; in the experiment on Puccinia triticina (setting [2]) it was > 80%; in the experiment on Puccinia triticina (setting [3]), > 80%.

`COc1ccnc(C(=O)N[C@H]2CCOC[C@H](Oc3ccccc3)[C@@H](Oc3ccccc3)[C@H](C)OC2=O)c1OCOC(C)=O` [Compound 37]: the pest or weed control at 100 ppm (in the experiment with Uncinula necator; in experiment [1]) was > 80% in each case. The pest or weed control at 121.5 g/ha with Puccinia triticina (setting [2]) and with Puccinia triticina (setting [3]) was > 80% throughout.

In the case of `COc1ccnc(C(=O)N[C@H]2COCC[C@H](Cc3ccccc3)[C@@H](OCC(C)C)[C@H](C)OC2=O)c1OC(C)=O` [Compound 21], the pest or weed control at 100 ppm (with Uncinula necator; in experiment [1]) was > 80% in each case. In addition, the pest or weed control at 121.5 g/ha in the experiment with Puccinia triticina (setting [2]) and with Puccinia triticina (setting [3]) was > 80% throughout.

As for `CCCCO[C@H]1CCOC[C@H](NC(=O)c2nccc(OC)c2OCOC(C)=O)C(=O)O[C@@H](C)[C@@H]1OC(=O)C1CC1` [Compound 5], the pest or weed control at 100 ppm was < 80% in the experiment on Uncinula necator, < 80% in experiment [1], > 80% with Puccinia triticina (setting [2]) and > 80% with Puccinia triticina (setting [3]).

Consider `CCCCO[C@H]1CCOC[C@H](NC(=O)c2nccc(OC)c2OCOC(C)=O)C(=O)O[C@@H](C)[C@@H]1OC(=O)C(C)C` [Compound 3], for which the pest or weed control at 100 ppm is < 80% with Uncinula necator, < 80% in experiment [1], > 80% with Puccinia triticina (setting [2]) and > 80% with Puccinia triticina (setting [3]).

On to `CCCCCO[C@H]1[C@H](C)OC(=O)[C@@H](NC(=O)c2nccc(OC)c2OCOC(C)=O)CCCC[C@@H]1Oc1ccccc1` [Compound 17], for which the pest or weed control at 100 ppm in the experiment with Uncinula necator, in the experiment on Puccinia triticina (setting [2]) and in the experiment on Puccinia triticina (setting [3]) was > 80% each time.
